Results from US11976069B2, “Inhibitors of histone deacetylase useful for the treatment or prevention of HIV infection” (Merck Sharp & Dohme LLC, priority 2019, dated 2024).
Where two headings read alike, the source gives them in different places.

System: KARN cells (Jurkat 2C4)
Assay: KARN assay (luciferase induction)
Assay type: cell-based
Details: ~20 hr, 100% induction = 2 μM SAHA
Procedure: KARN cells (Jurkat 2C4) were licensed from the laboratory of Dr. John Kam, Case Western Reserve University, School of Medicine. […] An atmosphere of 5% CO2 and 90% humidity was used for all culture work. Cells were split and reseeded into T175 flasks at a density of 0.2×10^6 cells/ml, in 40 ml of media, every 3-4 days.
Day 1: After the 3-4 day growth period, the cells were transferred from the T175 flask to a 50 ml conical tube and gently pelleted at 1000 rpm for 5 minutes. […] These flasks were returned to the incubator.
Day 2: Cell Preparation: The next day, the cells were transferred from each T175 flask to an individual 50 ml conical tube and gently pelleted at 1000 rpm for 5 minutes. The cells were gently resuspended in assay media (30 ml) and pelleted again. […] The cells were counted using the ViCell (Beckman Coulter, Brea, Calif.) and diluted as necessary. A Multidrop (Combi, Thermo Scientific, Waltham, Mass.) with a sterile head was used to seed the cells into the wells of a 384-well solid black plate with lid (Perkin Elmer, Waltham, Mass., catalog number 6007660) at 4000 cells/30 μl/well for the 5% NHS assay media and 6000 cells/30 μl/well for 0.1% NHS assay. The plates were covered and returned to the incubator prior to compound addition.
Compound Preparation: Solutions of control inhibitor suberoylanilide hydroxamic acid (SAHA; Sigma, catalog number SML0061) and test compounds in 100% DMSO were titrated into 384-well polypropylene plates (Labcyte, San Jose, Calif., catalog number P-05525) using a 20-point dose response and 2-fold dilutions. The reference compounds, DMSO and SAHA were then added to the compound plate. Using the Access system (Labcyte), 120 nl of these inhibitor and control solutions were added to the individual wells of the plates containing the cells, and the plates were then returned to the incubator for ˜20 hr (range from 18-24 hr). The final high concentration for SAHA and the test compounds in the assays was 40 μM. The final DMSO concentration in all wells was 0.4%. The minimal induction reference compound used was DMSO and the maximal induction reference compound used was SAHA (2 μM final concentration in the assay).
Day 3: The luciferase detection reagent was prepared by transferring the contents of one bottle of Steady-Glo buffer to one bottle of Steady-Glo substrate (Steady-Glo Luciferase Assay System, Promega, Madison, […]., catalog number E2520), followed by gently mixing until the substrate was thoroughly dissolved and the solution was equilibrated to room temperature. The cell culture assay plates were removed from the incubator and brought to room temperature (15 min). The Steady-Glo Reagent was added to the plates (30 μl/well), which were then covered with a black lid and incubated for 10 minutes at room temperature. The plates were then read for luminescence on an Envision (Perkin Elmer) using the ultrasensitive mode (US LUM), […] and 384-well aperture. Luminescence counts in the DMSO reference wells were considered as 0% induction, while those in the 2 μM SAHA reference wells were considered as 100% induction. Dose response curves were plotted as test compound concentration (X-axis) vs. percent activation (Y-axis) using a 4-parameter fit based on the Levenberg-Marquardt algorithm.

[1] = Jurkat, read-out: Karn EC50 with 0.1% NHS, 0.1% normal human serum
[2] = Jurkat, read-out: Karn EC50 with 5% NHS, 5% normal human serum
[3] = read-out: Karn EC50 with 0.1% NHS, 0.1% normal human serum
[4] = read-out: Karn EC50 with 5% NHS, 5% normal human serum

Molecule	EC50 [1]	EC50 [2]	EC50 [3]	EC50 [4]
CCC(=O)CCCCC[C@H](NC(=O)[C@H]1CC12CCN(CC)CC2)c1[nH]c2nc1C(=O)NCCC/C=C/c1cccc-2c1 [Compound 15, (1S)-6-ethyl-N-{(1S)-7-oxo-1-[(11E)-6-oxo-3,7,18-triazatricyclo[11.3.1.1~2,5~]octadeca-1(17),2(18),4,11,13,15-hexaen-4-yl]nonyl}-6-azaspiro[2.5]octane-1-carboxamide]	5.24 µM	19.3 µM	–	–
(11S,4S)-4-(6-oxooctyl)-61,62-dihydro-3-aza-5(2,5)-oxazola-6(6,1)-quinolina-12(4,1)-piperidina-1(1,2)-cyclopropanadodecaphane-62,2-dione [Compound 8]	–	–	> 40 µM	> 40 µM
CCC(=O)CCCCCC1NC(=O)C2CC2N2CCC(CCCCCn3c(=O)ccc4cc(ccc43)-c3cnc1o3)CC2 [Compound 7, (11S,4S)-4-(6-oxooctyl)-61,62-dihydro-3-aza-5(2,5)-oxazola-6(6,1)-quinolina-12(4,1)-piperidina-1(1,2)-cyclopropanadodecaphane-62,2-dione]	–	–	5.15 µM	4.73 µM
CCC(=O)CCCCC[C@@H]1NC(=O)[C@H]2CC23CCN(CCCCCCCCn2ccc4cc(c(OC)cc4c2=O)-c2cnc1[nH]2)CC3 [Compound 5, (1^1S,4S)-6^7-methoxy-4-(6-oxooctyl)-6^1,6^2-dihydro-5^1H-3-aza-6(6,2)-isoquinolina-15(4,1)-piperidina-5(2,5)-imidazola-1(1,2)-cyclopropanapentadecaphane-6^1,2-dione]	0.011 µM	0.012 µM	–	–
CCC(=O)CCCCC[C@@H]1NC(=O)[C@H]2CC23CCN(CCCOCCCn2ccc4cc(ccc4c2=O)-c2cnc1[nH]2)CC3 [Compound 12, (3S,6S)-6-(6-oxooctyl)-22-oxa-5,8,18,26,33-pentaazahexacyclo[24.2.2.1˜7,10˜0.1˜11,15˜0.1˜14,18˜0.0˜1,3˜]tritriaconta-7,9,11(32),12,14,16-hexaene-4,31-dione]	1.79 µM	1.99 µM	–	–
